Source: patent US9913838B2, “Methods of treating cancer using compositions comprising perillyl alcohol derivative” (NEONC TECHNOLOGIES INC., priority 2010, dated 2018)
Where two headings read alike, the source gives them in different places. One block for each compound: values may come before it.

Experiments:
[1] = system: subcutaneous U-87 gliomas; experiment: Nude mouse subcutaneous glioma model, local application; assay type: in vivo, nude mice; settings: local application via Q-tip daily over 8 weeks; ranking in words
Procedure: Inhibition of tumor growth by butyryl-POH was studied in a nude mouse subcutaneous glioma model. Mice were injected with U-87 glioma cells (500,000 cells/injection) and allowed to form a palpable nodule over two weeks. Once palpable nodule was formed, the mice were treated with local application of various compounds as indicated in FIGS. 9A and 9B via a Q-tip (1 cc/application/day) over a period of 8 weeks.

MCF7 = experiment: Colony formation assay, MCF7; settings: pre-treated with O6-BG for 60 minutes; MCF7
Procedure: (§1) Depending on the cell line (and plating efficiency), 200-350 cells were seeded into each well of a 6-well plate. […] Thereafter, the drugs were removed, fresh growth medium was added, and the cells were kept in culture undisturbed for 12-16 days, during which time the surviving cells spawned colonies of descendants. Colonies (defined as groups of >50 cells) were visualized by staining for 4 hours with 1% methylene blue (in methanol), and then were counted.
(§2) In the case of O6-BG treatment, cells were pretreated with 10 μM O6-BG for one hour before addition of TMZ or TMZ-POH. After 24 hours, another 10 μM O6-BG was added to the medium. Another 24 hours later, drug-laced medium was removed, and fresh medium without drugs was added. Thereafter, cells remained undisturbed until staining with methylene blue.
(§3) The cytotoxic potency of TMZ-POH, was analyzed by colony formation assay (CFA) in a variety of human breast cancer cell lines and compared to the cytotoxicity of TMZ. We used estrogen receptor positive cells MCF7 and T47D, the triple-negative lines MDA-MB-231, MDA-MB-468, and HCC-1937, and a brain-seeking variant of the 231 cell line, MDA-MB-231-br.

TMZ-resistant tumors = settings: O6-BG and TMZ, cited from earlier work
231-MGMT-2 = experiment: Colony formation assay, MGMT-transfected 231-MGMT-2; assay type: cell-based, human; settings: pre-treated with O6-BG for 60 minutes; 231-MGMT-2
Procedure: as §1, §2
(§4) MDA-MB-231 cells were co-transfected in 6-well plates with the use of Lipofectamine 2000 (Invitrogen, Carlsbad, Calif.) according to manufacturer's instructions. 2 μg pSV2MGMT (containing the human MGMT cDNA) was combined with 0.2 μg pSV2neo (containing the neomycin gene for selection of cells in G418). Both plasmids were provided by Bernd Kaina (Mainz, Germany). Individual clones of transfected cells were selected in medium containing 750 μg/mL G418 and propagated in 250 μg/mL G418. G418 was obtained as G418 disulfate salt from Sigma-Aldrich and dissolved in PBS at 75 mg/mL. Selection medium was removed from cells several days before experimental drug treatment.
(§5) To investigate the latter, we stably transfected MGMT-negative MDA-MB-231 cells with MGMT cDNA and isolated individual clones. […] Both clones were treated with increasing concentrations of TMZ-POH and TMZ and analyzed by CFA.

MDA-MB-231 = experiment: cells
Procedure: as §1, §2, §3
Thus, we tested whether simply mixing the two compounds TMZ and POH could mimic the effects of the TMZ-POH conjugate. MDA-MB-231 cells were treated with the individual compounds (TMZ-POH, TMZ or POH) alone, or with an equimolar mix of TMZ plus POH, and cell survival was analyzed by CFA.

MGMT = experiment: Western blot of MGMT protein levels in MDA-MB-468 cells; assay type: cell-based, human; settings: MDA-MB-468, 17 hours; in words
Procedure: In FIG. 21C, MDA-MB-468 cells were treated with the indicated concentrations of TMZ-POH, TMZ, or O6-BG for 17 hours before harvest of cellular lysates. vh.=cells treated with vehicle only.
(§6) Total cell lysates were analyzed by Western blot analysis as described in P. Pyrko et al. Downregulation of survivin expression and concomitant induction of apoptosis by celecoxib and its non-cyclooxygenase-2-inhibitory analog, dimethyl-celecoxib (DMC), in tumor cells in vitro and in vivo. Mol Cancer 5 (2006) 19. The primary antibodies were purchased from Cell Signaling Technology (Beverly, Mass.) or Santa Cruz Biotechnology, Inc. (Santa Cruz, Calif.) and used according to the manufacturers' recommendations. All immunoblots were repeated at least once to confirm the results.
The major cytotoxic DNA lesion set by TMZ is methylation of O6-guanine, and it is well known that removal of this methyl group by MGMT leads to rapid degradation of the DNA repair protein.

231-MGMT-1 = experiment: Colony formation assay, MGMT-transfected 231-MGMT-1; assay type: cell-based, human; settings: pre-treated with O6-BG for 60 minutes; 231-MGMT-1
Procedure: as §1, §2, §4, §5

MDA-MB-468 = experiment: Colony formation assay, MDA-MB-468; settings: pre-treated with O6-BG for 60 minutes; MDA-MB-468
Procedure: as §1, §2, §3

[2] = system: TMZ sensitive (U251) cells; experiment: Colony forming assay, TMZ sensitive U251 cells; assay type: cell-based, human; settings: in words
Procedure: (§7) Colony forming assays were carried out after cells were treated with TMZ alone, POH alone, and the TMZ-POH conjugate. […] Cancer Lett. 2011 Mar. 28; 302(2):100-8.

[3] = system: TMZ resistant (U251TR) U251 cells; experiment: Colony forming assay, TMZ resistant U251TR cells; assay type: cell-based, human; settings: in words
Procedure: as §7

[4] = system: γ-H2AX, activated caspase 7 and cleaved PARP; experiment: DNA damage and cell death marker analysis in MDA-MB-231 cells (Western blot); assay type: cell-based, human; settings: MDA-MB-231, 20 μM, after 5 days of treatment; in words
Procedure: FIGS. 25A-25B show DNA damage and cell death marker analysis, where MDA-MB-231 cells were used for Western blot analysis of expression levels for markers of DNA damage (γ-H2AX) and cell death (activated caspase 7 and cleaved PARP). In FIG. 25A, cells were treated with 15 μM TMZ-POH and harvested every 24 hours up to 6 days; control cells remained untreated, or received vehicle (vh.) only. In FIG. 25B, cells were treated with 20 μM of either TMZ-POH, TMZ, or POH individually, or with 20 μM TMZ combined with 20 μM POH (TMZ+POH) and harvested after 24 hours or 5 days; control cells remained untreated, or received vehicle (vh.) only. In the case of caspase 7, only the activated (cleaved) form is shown (cl. C-7).
as §6
It is known that GBM cells treated with physiological concentrations of TMZ (<100 μM) in vitro can survive for several (5-7) days seemingly unaffected before substantial cell death becomes apparent. We observed a similar phenotype when breast cancer cell lines were treated with TMZ-POH, i.e., cell cultures only began to deteriorate approximately a week after the onset of drug treatment. In order to characterize TMZ-POH-induced cell death in greater detail, we treated MDA-MB-231 cells with 15 μM of the drug and collected cell lysates daily over the course of 6 days. The lysates were analyzed by Western blot for the presence of two apoptosis markers, cleaved (i.e. activated) caspase 7 and cleaved PARP-1 (poly ADP-ribose polymerase-1), along with the DNA damage marker γ-H2AX.
As shown in FIGS. 20A-20B above, an equimolar combination of TMZ+POH was unable to achieve the same potency in blocking colony survival as the TMZ-POH conjugate. […] We treated cells with the same concentration (20 μM) of TMZ-POH, TMZ, POH, or TMZ combined with POH (TMZ+POH), and analyzed the induction of γ-H2AX, activated caspase 7, and cleaved PARP. […] Thus, the results from the cell survival assay (FIGS. 20A-20B) correlated closely with the effects of these compounds on DNA damage and apoptosis markers (FIG. 25B), and in all cases TMZ-POH clearly generated the strongest anticancer impact.

[5] = system: USC-02 glioma cancer stem cells; experiment: MTT cytotoxicity assay, USC-02 glioma cancer stem cells; assay type: cell-based; settings: TMZ 0-400 uM, POH 0-2 mM, in words
Text: Cancer Lett. 2011 Mar. 28; 302(2):100-8.

A172 human glioma cells = experiment: MTT cytotoxicity assay, A172 glioma cells; settings: for cytotoxicity (MTT assay): A172, result in words
Text: (§8) In vitro efficacy of the present composition can be determined using methods well known in the art. For example, the cytoxicity of the present monoterpene (or sesquiterpene) and/or the therapeutic agents may be studied by MTT [3-(4,5-dimethylthiazol-2-yl)-2,5-diphenyl tetrazolium bromide] cytotoxicity assay. MTT assay is based on the principle of uptake of MTT, a tetrazolium salt, by metabolically active cells where it is metabolized into a blue colored formazon product, which can be read spectrometrically. J. of Immunological Methods 65: 55 63, 1983. The cytoxicity of the present monoterpene (or sesquiterpene) derivative and/or the therapeutic agents may be studied by colony formation assay. Functional assays for inhibition of VEGF secretion and IL-8 secretion may be performed via ELISA. Cell cycle block by the present monoterpene (or sesquiterpene) derivative and/or the therapeutic agents may be studied by standard propidium iodide (PI) staining and flow cytometry. Invasion inhibition may be studied by Boyden chambers. In this assay a layer of reconstituted basement membrane, Matrigel, is coated onto chemotaxis filters and acts as a barrier to the migration of cells in the Boyden chambers. Only cells with invasive capacity can cross the Matrigel barrier. Other assays include, but are not limited to cell viability assays, apoptosis assays, and morphological assays.
(§9) First cytotoxicity assays were carried out after cells were treated with dimethyl-celecoxib (DMC) alone.
(§10) Then U87, A172 and U251 cells were treated with dimethyl celecoxib bisPOH carbamate (POH−DMC) (e.g., synthesized by the method in Example 1), and the MTT cytotoxicity assays performed (FIG. 2).
(§11) First cytotoxicity assays were carried out after cells were treated with temozolomide (TMZ) alone, the standard alkylating agent used in the treatment of malignant gliomas.
(§12) Then TMZ-resistant glioma cell lines U87, A172 and U251 cells were treated with TMZ-POH (e.g., synthesized by the method in Example 3).
(§13) To compare the cytotoxicity of Rolipram POH Carbamate (POH-Rolipram) (e.g., synthesized by the method in Example 5) with rolipram, […] inducing differentiation and apoptosis in glioma cells, A172, U87, U251 and LN229 human glioma cells were treated with either POH-Rolipram or rolipram for 48 hours.

LN229 human glioma cells = experiment: cells
Text: as §8, §13

U87 human glioma cells = experiment: MTT cytotoxicity assay, U87 glioma cells; settings: for cytotoxicity (MTT assay): U87, result in words
Text: as §8, §9, §10, §11, §12, §13

U251 human glioma cells = experiment: MTT cytotoxicity assay, U251 glioma cells; settings: for cytotoxicity (MTT assay): U251, result in words
Text: as §8, §9, §10, §11, §12, §13
MTT cytotoxicity assays were carried out after cells were treated with the TMZ-POH conjugate. The MTT cytotoxicity assays were carried out as described in Chen T C, et al. Green tea epigallocatechin gallate enhances therapeutic efficacy of temozolomide in orthotopic mouse glioblastoma models. Cancer Lett. 2011 Mar. 28; 302(2):100-8.

SMILES: C=C(C)C1CC=C(COC(=O)CCC)CC1 (centres unmarked) [Butyryl-POH]
- inhibition of tumor growth [1]: greatest inhibition of tumor growth

SMILES: Nc1nc(OCc2ccccc2)c2nc[nH]c2n1 [O6-BG, O6-benzylguanine, reference compound]
- effect of O6-BG on cytotoxic outcome of TMZ-POH and TMZ treatment (MCF7): increased the cytotoxic outcome
- fraction of patients with restored TMZ-sensitivity (TMZ-resistant tumors; patients with GBM, no significant effect): 3%
- fraction of patients with restored TMZ-sensitivity (TMZ-resistant tumors; patients with anaplastic glioma): 16%
- effect of O6-BG on toxicity of TMZ-POH and TMZ (231-MGMT-2): greatly enhanced toxicity
- effect of O6-BG on survival of cells treated with TMZ-POH or TMZ (MDA-MB-231; pre-treated with O6-BG for 60 minutes, MDA-MB-231): had no effect
- MGMT protein levels (MGMT): strongly decreases MGMT protein levels
- effect of O6-BG on toxicity of TMZ-POH and TMZ (231-MGMT-1): greatly enhanced toxicity
- effect of O6-BG on cytotoxic outcome of TMZ-POH and TMZ treatment (MDA-MB-468): increased the cytotoxic outcome

SMILES: C=C(C)[C@@H]1CC=C(CO)CC1 [POH, Perillyl alcohol]
- cytotoxicity (colony forming assay) [2]: demonstrated cytotoxicity
- cytotoxicity (colony forming assay) [3]: demonstrated cytotoxicity
- concentrations required in order to become cytotoxic (MDA-MB-231): above 100 μM
- IC50 (MDA-MB-231; Homo sapiens, MDA-MB-231, 48 h, read-out: IC50 (concentration required to decrease colony formation by 50%)): ~700 µM
- induction of γ-H2AX, activated caspase 7, and cleaved PARP [4]: inactive
- cytotoxicity (MTT assay) [5]: demonstrated cytotoxicity

SMILES: C=C(C)C1CC=C(COC(=O)N(C(=O)OCC2=CCC(C(=C)C)CC2)S(=O)(=O)c2ccc(-n3nc(C(F)(F)F)cc3-c3cc(C)ccc3C)cc2)CC1 (centres unmarked) [POH−DMC]
- cytotoxicity (MTT assay) (A172 human glioma cells): much better cytotoxicity than DMC alone
- cytotoxicity (MTT assay) (U87 human glioma cells): much better cytotoxicity than DMC alone
- cytotoxicity (MTT assay) (U251 human glioma cells): much better cytotoxicity than DMC alone

More lines, main results first:

- IC50 (LN229 human glioma cells; LN229 cells, 48 hours): 100 µM
SMILES: C=C(C)C1CC=C(COC(=O)N2CC(c3ccc(OC)c(OC4CCCC4)c3)CC2=O)CC1 (centres unmarked) [POH-rolipram, 4-(3-cyclopentyloxy-4-methoxyphenyl)-2-oxo-pyrrolidine-1-carboxylic acid 4-isopropenyl cyclohex-1-enylmethyl ester]
- cytotoxicity (MTT assay) (A172 human glioma cells): substantially higher kill rates compared to rolipram alone
- IC50 (A172 human glioma cells; A-172 cells, 48 hours): 50 µM
- cytotoxicity (MTT assay) (LN229 human glioma cells): substantially higher kill rates compared to rolipram alone
- cytotoxicity (MTT assay) (U87 human glioma cells): substantially higher kill rates compared to rolipram alone
- IC50 (U87 human glioma cells; U-87 cells, 48 hours): 180 µM
- cytotoxicity (MTT assay) (U251 human glioma cells): substantially higher kill rates compared to rolipram alone
- IC50 (U251 human glioma cells; U251 cells, 48 hours): 50 µM
- cytoxicity (U251 human glioma cells; U251 cells, at 100 uM): ~100%

- IC50 (LN229 human glioma cells; Homo sapiens, LN-229, 48 h): > 100 µM
SMILES: COc1ccc(C2CNC(=O)C2)cc1OC1CCCC1 (centres unmarked) [rolipram, reference compound]
- IC50 (A172 human glioma cells; Homo sapiens, A 172, 48 h): ~1000 µM
- IC50 (U87 human glioma cells; Homo sapiens, U-87 MG, 48 h): > 1000 µM
- IC50 (U251 human glioma cells; Homo sapiens, U-251, 48 h): 170 µM
- plateau cytotoxicity (U251 human glioma cells; U251 cells): 60%
